Data set [1] deals with C6 rat glioblastoma cell line. More on the design: method as in PMID 30664150. Particulars: C6 cells, administered separately, cited from earlier work.
Data set [2] is described as follows: MTT cell proliferation assay, OVCAR-3. The format is cell-based, human. The conditions noted are these: human. For orientation: Tetrazolium assays rely on reduction of a dye to a coloured formazan, in cell work by metabolically active cells.
Data set [3] deals with OVCAR-3 ovarian cancer cell line. The data set is described as follows: MTT cell proliferation assay, OVCAR-3. Format: cell-based, human. The conditions noted are these: for IC50: Homo sapiens, MTT, estimation ± SE.
A short description of data set [4]: MTT cell proliferation assay, MCF-7. Format: cell-based, human. The conditions noted are these: human.
The subject of data set [5] is MCF-7 breast adenocarcinoma cell line. The data set is described as follows: MTT cell proliferation assay, MCF-7. Format: cell-based, human. Particulars: for IC50: Homo sapiens, MCF7, MTT, estimation ± SE.
Data set [6] in a line: MTT cell proliferation assay, MDA-MB-231. The format is cell-based, human. The conditions noted are these: human.
The subject of data set [7] is MDA-MB-231 breast adenocarcinoma cell line. The data set is described as follows: MTT cell proliferation assay, MDA-MB-231. The conditions noted are these: for IC50: Homo sapiens, MTT, estimation ± SE. The format is cell-based, human.
Data set [8] can be described thus: MTT cell proliferation assay, MCF-12A. Format: cell-based, human. Particulars: human.
In data set [9] the test system is MCF-12A nontumorigenic mammary epithelial cell line. Description: MTT cell proliferation assay, MCF-12A. Format: cell-based, human. The conditions noted are these: Homo sapiens, MCF-12A.
The format of data set [10] is cell-based. The conditions noted are these: human.
For data set [11], the system named is Caco-2 colorectal adenocarcinoma cell line. Description: MTT cell proliferation assay, Caco-2. Format: cell-based. Particulars: Homo sapiens, estimation ± SE.
Data set [12] in a line: MTT cell proliferation assay, HepG2. The conditions noted are these: human. Format: cell-based, human.
For data set [13], the system named is HepG2 hepatocarcinoma cell line. The data set is described as follows: MTT cell proliferation assay, HepG2. Format: cell-based, human. Particulars: Homo sapiens, MTT, estimation ± SE.
For data set [14], the system named is lymphocytic leukemia cells P-388. On the set-up: method as in PMID 2380718. The conditions noted are these: cited from earlier work.
For data set [15], the system named is d R Lh-84 cells (rat liver cancer). On the set-up: method as in PMID 8593444. The conditions noted are these: cited from earlier work.
In data set [16] the test system is HeLa (human epithelial carcinoma). More on the design: method as in PMID 8593444. The conditions noted are these: cited from earlier work.
A further data set relates to S-180 (sarcoma). On the set-up: method as in PMID 8593444. The conditions noted are these: cited from earlier work.
The test system of data set [17] is P-388/D1 (mouse lymphoid tumor). On the set-up: method as in PMID 8593444. The conditions noted are these: cited from earlier work.
Data set [18] concerns HL-60 promyelocytic leukemia cells. More on the design: method as in PMID 9477175. Particulars: HL-60 cell death; cited from earlier work.
In the next data set the test system is protein kinase C (PKC). The conditions noted are these: cited from earlier work.
The test system of data set [19] is MCF-7 breast cancer cells. More on the design: method as in PMID 34719192. Particulars: cell counting kit 8, cited from earlier work.
The test system of another data set is MDA-MB 231 cells. On the set-up: method as in PMID 34719192. Particulars: cell counting kit 8, cited from earlier work.
In data set [20] the test system is pre-senescent normal human diploid fibroblasts. On the set-up: method as in PMID 29505920. The conditions noted are these: 3-week treatment; cited from earlier work.
Data set [21] has as its system glioblastoma cell line T98G. On the set-up: method as in PMID 36551708. Particulars: cited from earlier work.

Where two headings read alike, the source gives them in different places.

In the case of `Cn1nnc2c(C(N)=O)ncn2c1=O` [temozolomide, reference compound], the cell viability (usually a per cent measure of how many cells are alive, often set against a control) in data set [1] (5 mM) was “ca. 52%”.
As for `C[C@@H]1O[C@@H](O[C@@H]2[C@@H](O)[C@H](OCCc3ccc(O)c(O)c3)O[C@H](CO)[C@H]2OC(=O)/C=C/c2ccc(O)c(O)c2)[C@H](O)[C@H](O)[C@H]1O` [Acteoside], the viability at 200 µM in [2], in [4], in data set [6], in data set [10] and in data set [12] was at most 30% in each case. Further, the IC50 (as a rule, the concentration needed to halve the response being measured) was 314 ± 3.52 µM in data set [3] (OVCAR-3, 24 h); 232 ± 5.08 µM in [3] (OVCAR-3, 48 h); 163 ± 3.41 µM in [3] (OVCAR-3, 72 h); 219.1 ± 1.4 µM in [5] (MCF-7, 24 h); 154 ± 2.71 µM in data set [5] (MCF-7, 48 h); 113 ± 2.81 µM in data set [5] (MCF-7, 72 h). For the same compound, the IC50 in data set [7] (MDA-MB-231, 24 h) was 312 ± 3.28 µM; in data set [7] (MDA-MB-231, 48 h) it was 245 ± 4.96 µM; in data set [7] (MDA-MB-231, 72 h), 200 ± 2.45 µM; in [9] (24 h, MTT, estimation ± SE, read-out: IC50), 362.3 ± 1.86 µM; in [9] (48 h, MTT, estimation ± SE, read-out: IC50) it was 347 ± 3.67 µM; in data set [9] (72 h, MTT, estimation ± SE, read-out: IC50) it was 326 ± 3.89 µM. Moreover, the IC50 in data set [9] (time not stated, summary of Table 1, read-out: IC50 (potency against the MCF-12A line)) is about 300 µM; in [11] (Caco-2, 24 h, values exceeding 500 μM determined with CompuSyn from dose-response curve estimation) it was over 500 µM; in data set [11] (Caco-2, 48 h), 467 ± 8.71 µM; in data set [11] (Caco-2, 72 h), 280 ± 6.13 µM; in data set [13] (HepG2, 24 h) it was 261 ± 3.52 µM; in data set [13] (HepG2, 48 h), 220 ± 2.65 µM. The half-inhibitory concentration (IC50) in data set [13] (HepG2, 72 h) is 173.8 ± 1.59 µM; in data set [15], 61.98 µg/mL; in data set [15] (converted from µg/mL, read-out: IC50) it was 99.2 µM; in data set [16] (HeLa (human epithelial carcinoma), first value listed, converted, read-out: IC50) it was over 320 µM; in data set [16] (HeLa (human epithelial carcinoma), first value listed) it was over 200 µg/mL; in [16] (HeLa cells, second value listed, converted, read-out: IC50), 12.5 µM. The 50% inhibitory concentration (IC50) in the data set with S-180 (sarcoma) (S-180, converted from µg/mL, read-out: IC50) was 47.4 µM; with S-180 (sarcoma) (S-180), 29.6 µg/mL; in data set [17] (P-388/D1, converted from µg/mL, read-out: IC50) it was 354 µM; in data set [17] (P-388/D1) it was 221.0 µg/mL; in [18], 26.7 µM; in data set [19] (MCF-7, 24 h exposure), 0.127 µM. The IC50 in data set [19] (MCF-7, 48 h exposure) was 0.217 µM; in data set [19] (MCF-7, 72 h exposure) it was 0.283 µM; in the data set on MDA-MB 231 cells (MDA-MB 231, 24 h exposure) it was 0.16 µM; with MDA-MB 231 cells (MDA-MB 231, 48 h exposure), 0.258 µM; in the data set with MDA-MB 231 cells (MDA-MB 231, 72 h exposure), 0.256 µM; in data set [21], 85 µM. The “toxic effect (in words)” value in [3] (OVCAR-3, 200 μM, after 24 h of treatment) was “highly toxic effect”; in data set [5] (MCF-7, 200 μM, after 24 h of treatment), “highly toxic effect”; in data set [7] (MDA-MB-231, 200 μM, after 24 h of treatment), “highly toxic effect”. Moreover, the viability (commonly a read-out of living cells in per cent, often relative to untreated cells) at 400 µM in data set [8] is under 30%. The ED50 in [14] (lymphocytic leukemia cells P-388, converted from µg/mL) was 4.16 µM; in [14] (lymphocytic leukemia cells P-388), 2.6 µg/mL. The “inhibition of protein kinase C (in words)” value in the data set with protein kinase C (PKC) is recorded as “inhibitor”. For the same compound, the “cytotoxic effect (in words)” value in [20] was “no cytotoxic effect”. Also, the cell viability in data set [1] (50 µM) was about 80%.
With `O=c1cc(-c2ccc(O)c(O)c2)oc2c([C@@H]3O[C@H](CO)[C@@H](O)[C@H](O)[C@H]3O)c(O)cc(O)c12` [orientin, reference compound], in [21], the half-maximal inhibitory concentration (IC50) is over 100 µM.

The values above are taken from publication PMC9967538, “Cytotoxic Effect of Phenylethanoid Glycosides Isolated from Plantago lanceolata L” (Life, 2023).
